Results reported in patent US12077503B2, “Substituted cyclic amides and their use as herbicides” (FMC CORPORATION, priority 2015, dated 2024).

Assays:
Format in all cases: in vivo
Kochia (Kochia scoparia) [1] = assay: Test A preemergence; conditions: Bassia scoparia, pre-emergence, 240 h, 0 to 100 scale where 0 is no effect and 100 is complete control, read-out: Kochia plant response rating
In short: (§1)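 Preemergence directed soil spray on seeded pots, or postemergence application to plants 2–10 cm, one- to two-leaf. Solvent mixture non-phytotoxic, with surfactant. Scored ~10 d later, visually, 0–100 vs untreated.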

[2] = test system: pigweed (Amaranthus retroflexus); assay: Test A preemergence; conditions: Amaranthus retroflexus, pre-emergence, 240 h, 0 to 100 scale where 0 is no effect and 100 is complete control, read-out: Pigweed plant response rating
[3] = test system: ryegrass, Italian (Italian ryegrass, Lolium multiflorum); assay: Test A preemergence; conditions: Lolium multiflorum, pre-emergence, 240 h, 0 to 100 scale where 0 is no effect and 100 is complete control, read-out: Ryegrass, Italian plant response rating
In short: as §1

[4] = test system: barnyardgrass (Echinochloa crus-galli); assay: Test A preemergence; conditions: Echinochloa crus-galli, pre-emergence, 240 h, 0 to 100 scale where 0 is no effect and 100 is complete control, read-out: Barnyardgrass plant response rating
In short: as §1

[5] = test system: ragweed (common ragweed, Ambrosia elatior); assay: Test A preemergence; conditions: Ambrosia artemisiifolia, pre-emergence, 240 h, 0 to 100 scale where 0 is no effect and 100 is complete control, read-out: Ragweed plant response rating
In short: as §1

[6] = test system: giant foxtail (Setaria faberii); assay: Test A preemergence; conditions: Setaria faberi, pre-emergence, 240 h, 0 to 100 scale where 0 is no effect and 100 is complete control, read-out: Foxtail, Giant plant response rating
In short: as §1

[7] = test system: sedge, umbrella (small-flower umbrella sedge, Cyperus difformis); assay: Test B flooded paddy test; conditions: Cyperus difformis, 250 g ai/ha, Flood; 0 to 100 scale where 0 is no effect and 100 is complete control; read-out: Sedge, Umbrella plant response rating
In short: (§2)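 Greenhouse paddy pots with 2-leaf stage plants received compound by direct addition to floodwater 3 cm deep, kept at that level. Scored visually at 13–15 d versus controls (0 no effect; 100 complete control).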

[8] = test system: ducksalad (Heteranthera limosa); assay: Test B flooded paddy test; conditions: Heteranthera limosa, 250 g ai/ha, Flood; 0 to 100 scale where 0 is no effect and 100 is complete control; read-out: Ducksalad plant response rating
In short: as §2

[9] = test system: barnyardgrass (Echinochloa crus-galli); assay: Test B flooded paddy test; conditions: Echinochloa crus-galli, 250 g ai/ha, Flood; 0 to 100 scale where 0 is no effect and 100 is complete control; read-out: Barnyardgrass plant response rating
In short: as §2

rice (Oryra sativa) = assay: Test B flooded paddy test; conditions: Oryza sativa, 250 g ai/ha, Flood; 0 to 100 scale where 0 is no effect and 100 is complete control; read-out: Rice plant response rating
In short: as §2

Kochia (Kochia scoparia) [10] = assay: Test A postemergence; conditions: Bassia scoparia, post-emergence, 240 h, Postemergence, read-out: Kochia plant response rating (0 to 100 scale)
In short: as §1

[11] = test system: pigweed (Amaranthus retroflexus); assay: Test A postemergence; conditions: Amaranthus retroflexus, post-emergence, 240 h, Postemergence, read-out: Pigweed plant response rating (0 to 100 scale)
In short: as §1

[12] = test system: ryegrass, Italian (Italian ryegrass, Lolium multiflorum); assay: Test A postemergence; conditions: Lolium multiflorum, post-emergence, 240 h, Postemergence, read-out: Ryegrass, Italian plant response rating (0 to 100 scale)
In short: as §1

[13] = test system: wheat (Triticum aestivum); assay: Test A postemergence; conditions: Triticum aestivum, post-emergence, 240 h, Postemergence, read-out: Wheat plant response rating (0 to 100 scale)
In short: as §1

corn (Zea mays) = assay: Test A postemergence; conditions: Zea mays, post-emergence, 240 h, Postemergence, read-out: Corn plant response rating (0 to 100 scale)
In short: as §1

[14] = test system: barnyardgrass (Echinochloa crus-galli); assay: Test A postemergence; conditions: Echinochloa crus-galli, post-emergence, 240 h, Postemergence
In short: as §1

[15] = test system: ragweed (common ragweed, Ambrosia elatior); assay: Test A postemergence; conditions: Ambrosia artemisiifolia, post-emergence, 240 h, Postemergence, read-out: Ragweed plant response rating (0 to 100 scale)
In short: as §1

[16] = test system: blackgrass (Alopecurus myosuroides); assay: Test A postemergence; conditions: Alopecurus myosuroides, post-emergence, 240 h, Postemergence, read-out: Blackgrass plant response rating (0 to 100 scale)
In short: as §1

[17] = test system: Galium (catchweed bedstraw, Galium aparine); assay: Test A postemergence; conditions: Galium, post-emergence, 240 h, Postemergence, read-out: Galium plant response rating (0 to 100 scale)
In short: as §1

[18] = test system: giant foxtail (Setaria faberii); assay: Test A postemergence; conditions: Setaria faberi, post-emergence, 240 h, Postemergence, read-out: Foxtail, Giant plant response rating (0 to 100 scale)
In short: as §1

[19] = 125 g ai/ha, preemergence, visual injury rating, approximately 10 d
[20] = 125 g ai/ha, visual rating about 10 d after treatment
[21] = 31 g ai/ha, 0 is no effect, 100 is complete control

CN1C[C@H](c2cccc(C#N)c2)[C@@H](C(=O)Nc2cccc(F)c2F)C1=O [Compound 1286]
50%: pest or weed control at 125 g/ha [5, 19]
70%: pest or weed control at 250 g/ha [9] | pest or weed control at 31 g/ha [18, 21]
40%: pest or weed control at 125 g/ha [16, 20] | pest or weed control at 125 g/ha [17, 20]
0%: pest or weed control at 31 g/ha (Kochia (Kochia scoparia) [1]; 31 g ai/ha, Preemergence) | pest or weed control at 31 g/ha ([2]; 31 g ai/ha, Preemergence) | pest or weed control at 31 g/ha ([5]; 31 g ai/ha, Preemergence) | pest or weed control at 250 g/ha [7] | pest or weed control at 250 g/ha (rice (Oryra sativa)) | pest or weed control at 31 g/ha (Kochia (Kochia scoparia) [10]; [21]) | pest or weed control at 31 g/ha [11, 21] | pest or weed control at 125 g/ha [12, 20] | pest or weed control at 31 g/ha [12, 21] | plant injury at 125 g/ha [13, 20] | plant injury at 31 g/ha [13, 21] | pest or weed control at 125 g/ha [15, 20] | pest or weed control at 31 g/ha [15, 21] | pest or weed control at 31 g/ha [16, 21]
100%: pest or weed control at 31 g/ha ([4]; 31 g ai/ha, Preemergence) | pest or weed control at 125 g/ha [4, 19] | pest or weed control at 31 g/ha ([6]; 31 g ai/ha, Preemergence) | pest or weed control at 125 g/ha [6, 19]
30%: pest or weed control at 125 g/ha (Kochia (Kochia scoparia) [10]; [20])
95%: pest or weed control at 250 g/ha [8]
90%: pest or weed control at 125 g/ha ([14]; 125 g ai/ha, visual rating about 10 d after treatment, read-out: Barnyardgrass plant response rating (0 to 100 scale, 0 no effect, 100 complete control)) | pest or weed control at 31 g/ha ([14]; 31 g ai/ha, 0 is no effect, 100 is complete control, read-out: Barnyardgrass plant response rating (0 to 100 scale)) | pest or weed control at 125 g/ha [18, 20]
80%: plant injury at 125 g/ha (corn (Zea mays); [20])
20%: pest or weed control at 125 g/ha [2, 19] | pest or weed control at 31 g/ha ([3]; 31 g ai/ha, Preemergence) | pest or weed control at 125 g/ha [11, 20] | plant injury at 31 g/ha (corn (Zea mays); [21]) | pest or weed control at 31 g/ha [17, 21]
60%: pest or weed control at 125 g/ha (Kochia (Kochia scoparia) [1]; [19]) | pest or weed control at 125 g/ha [3, 19]
